Reference: PubChem BioAssay (NCI)
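Method: 48-hour compound exposure of cells in 96-well plates, five concentrations, linear interpolation of endpoints. GI50 is the concentration that inhibits growth by half. TGI: concentration producing complete growth inhibition.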

Key:
Assay in all cases: growth of human tumour cells (NCI), 48 h
HOP-62 NSCLC = system: HOP-62 NSCLC
SF-268 CNS = system: SF-268 CNS
SK-OV-3 ovarian = system: SK-OV-3 ovarian
786-0 renal = system: 786-0 renal
MOLT-4 leukemia = system: MOLT-4 leukemia
HL-60(TB) leukemia = system: HL-60(TB) leukemia
U251 CNS = system: U251 CNS
KM12 colon = system: KM12 colon
SW-620 colon = system: SW-620 colon
MALME-3M melanoma = system: MALME-3M melanoma
K-562 leukemia = system: K-562 leukemia
RXF 393 renal = system: RXF 393 renal
CCRF-CEM leukemia = system: CCRF-CEM leukemia
HOP-92 NSCLC = system: HOP-92 NSCLC
EKVX NSCLC = system: EKVX NSCLC
MCF7 breast = system: MCF7 breast
SK-MEL-28 melanoma = system: SK-MEL-28 melanoma
SK-MEL-5 melanoma = system: SK-MEL-5 melanoma
UACC-257 melanoma = system: UACC-257 melanoma
T-47D breast = system: T-47D breast
SR leukemia = system: SR leukemia
NCI-H460 lung = system: NCI-H460 lung
OVCAR-3 ovarian = system: OVCAR-3 ovarian
RPMI-8226 leukemia = system: RPMI-8226 leukemia
ACHN renal = system: ACHN renal
A498 renal = system: A498 renal
NCI-H522 lung = system: NCI-H522 lung
SF-295 CNS = system: SF-295 CNS
OVCAR-4 ovarian = system: OVCAR-4 ovarian
HCC-2998 colon = system: HCC-2998 colon
NCI/ADR-RES ovarian = system: NCI/ADR-RES ovarian
HT29 colon = system: HT29 colon
SN12C renal = system: SN12C renal
MDA-MB-231 breast = system: MDA-MB-231 breast
SF-539 CNS = system: SF-539 CNS
UACC-62 melanoma = system: UACC-62 melanoma
MDA-MB-435 = system: MDA-MB-435
LOX IMVI melanoma = system: LOX IMVI melanoma
NCI-H226 lung = system: NCI-H226 lung
BT-549 breast = system: BT-549 breast
SNB-19 CNS = system: SNB-19 CNS
CAKI-1 renal = system: CAKI-1 renal
DU-145 prostate = system: DU-145 prostate
COLO 205 colon = system: COLO 205 colon
M14 melanoma = system: M14 melanoma
A549 NSCLC = system: A549 NSCLC
SNB-75 CNS = system: SNB-75 CNS
HCT-15 colon = system: HCT-15 colon
HS 578T breast = system: HS 578T breast
HCT-116 colon = system: HCT-116 colon
NCI-H23 lung = system: NCI-H23 lung
PC-3 prostate = system: PC-3 prostate
UO-31 renal = system: UO-31 renal
OVCAR-8 ovarian = system: OVCAR-8 ovarian
OVCAR-5 ovarian = system: OVCAR-5 ovarian
IGROV1 ovarian = system: IGROV1 ovarian
SK-MEL-2 melanoma = system: SK-MEL-2 melanoma
TK-10 renal = system: TK-10 renal

O=C1NC(=O)c2c1c1c3ccccc3ccc1c1[nH]c3ccccc3c21
GI50 (HOP-62 NSCLC): 925 nM
TGI (HOP-62 NSCLC): 17600 nM
GI50 (SF-268 CNS): 1430 nM
TGI (SF-268 CNS): 34300 nM
GI50 (SK-OV-3 ovarian): 354 nM
TGI (SK-OV-3 ovarian): 6430 nM
GI50 (786-0 renal): 1200 nM
TGI (786-0 renal): 16600 nM
GI50 (MOLT-4 leukemia): 444 nM
TGI (MOLT-4 leukemia): 7480 nM
GI50 (HL-60(TB) leukemia): 233 nM
TGI (HL-60(TB) leukemia): > 100000 nM
GI50 (U251 CNS): 1060 nM
TGI (U251 CNS): 15700 nM
GI50 (KM12 colon): 115 nM
TGI (KM12 colon): > 100000 nM
GI50 (SW-620 colon): 717 nM
TGI (SW-620 colon): > 100000 nM
GI50 (MALME-3M melanoma): 207 nM
TGI (MALME-3M melanoma): 6010 nM
GI50 (K-562 leukemia): 543 nM
TGI (K-562 leukemia): > 91100 nM
GI50 (RXF 393 renal): 317 nM
TGI (RXF 393 renal): 1840 nM
GI50 (CCRF-CEM leukemia): 457 nM
TGI (CCRF-CEM leukemia): > 68700 nM
GI50 (HOP-92 NSCLC): 857 nM
TGI (HOP-92 NSCLC): 7420 nM
GI50 (EKVX NSCLC): 2040 nM
TGI (EKVX NSCLC): > 58400 nM
GI50 (MCF7 breast): 327 nM
TGI (MCF7 breast): > 100000 nM
GI50 (SK-MEL-28 melanoma): 911 nM
TGI (SK-MEL-28 melanoma): > 100000 nM
GI50 (SK-MEL-5 melanoma): 1160 nM
TGI (SK-MEL-5 melanoma): 26600 nM
GI50 (UACC-257 melanoma): 3740 nM
TGI (UACC-257 melanoma): > 80400 nM
GI50 (T-47D breast): 524 nM
TGI (T-47D breast): > 70900 nM
GI50 (SR leukemia): 169 nM
TGI (SR leukemia): 2920 nM
GI50 (NCI-H460 lung): 400 nM
TGI (NCI-H460 lung): 24400 nM
GI50 (OVCAR-3 ovarian): 2430 nM
TGI (OVCAR-3 ovarian): 19300 nM
GI50 (RPMI-8226 leukemia): 500 nM
TGI (RPMI-8226 leukemia): > 100000 nM
GI50 (ACHN renal): 336 nM
TGI (ACHN renal): 13200 nM
GI50 (A498 renal): 491 nM
TGI (A498 renal): 2710 nM
GI50 (NCI-H522 lung): 568 nM
TGI (NCI-H522 lung): 15600 nM
GI50 (SF-295 CNS): 1610 nM
TGI (SF-295 CNS): 14600 nM
GI50 (OVCAR-4 ovarian): 1790 nM
TGI (OVCAR-4 ovarian): 19600 nM
GI50 (HCC-2998 colon): 7650 nM
TGI (HCC-2998 colon): > 100000 nM
GI50 (NCI/ADR-RES ovarian): 1570 nM
TGI (NCI/ADR-RES ovarian): > 87000 nM
GI50 (HT29 colon): 631 nM
TGI (HT29 colon): > 91100 nM
GI50 (SN12C renal): 516 nM
TGI (SN12C renal): > 88200 nM
GI50 (MDA-MB-231 breast): 1150 nM
TGI (MDA-MB-231 breast): > 100000 nM
GI50 (SF-539 CNS): 663 nM
TGI (SF-539 CNS): 35700 nM
GI50 (UACC-62 melanoma): 749 nM
TGI (UACC-62 melanoma): > 62300 nM
GI50 (MDA-MB-435): 247 nM
TGI (MDA-MB-435): > 100000 nM
GI50 (LOX IMVI melanoma): 1380 nM
TGI (LOX IMVI melanoma): > 100000 nM
GI50 (NCI-H226 lung): 641 nM
GI50 (BT-549 breast): 279 nM
TGI (BT-549 breast): 2330 nM
GI50 (SNB-19 CNS): 2510 nM
TGI (SNB-19 CNS): 17000 nM
GI50 (CAKI-1 renal): 228 nM
TGI (CAKI-1 renal): 11700 nM
GI50 (DU-145 prostate): 960 nM
TGI (DU-145 prostate): > 100000 nM
GI50 (COLO 205 colon): 1300 nM
TGI (COLO 205 colon): > 100000 nM
GI50 (M14 melanoma): 322 nM
TGI (M14 melanoma): > 100000 nM
GI50 (A549 NSCLC): 971 nM
TGI (A549 NSCLC): > 100000 nM
GI50 (SNB-75 CNS): 4020 nM
TGI (SNB-75 CNS): 16600 nM
GI50 (HCT-15 colon): 593 nM
TGI (HCT-15 colon): > 100000 nM
GI50 (HS 578T breast): 1080 nM
TGI (HS 578T breast): > 31500 nM
GI50 (HCT-116 colon): 852 nM
TGI (HCT-116 colon): > 100000 nM
GI50 (NCI-H23 lung): 699 nM
TGI (NCI-H23 lung): > 100000 nM
GI50 (PC-3 prostate): 420 nM
TGI (PC-3 prostate): 30400 nM
GI50 (UO-31 renal): 239 nM
TGI (UO-31 renal): 21900 nM
GI50 (OVCAR-8 ovarian): 1290 nM
TGI (OVCAR-8 ovarian): 24800 nM
GI50 (OVCAR-5 ovarian): 1630 nM
TGI (OVCAR-5 ovarian): > 100000 nM
GI50 (IGROV1 ovarian): 529 nM
TGI (IGROV1 ovarian): > 56200 nM
GI50 (SK-MEL-2 melanoma): 1200 nM
TGI (SK-MEL-2 melanoma): > 100000 nM
GI50 (TK-10 renal): 486 nM
TGI (TK-10 renal): 11400 nM
